The values that follow come from patent US20040197335A1, “Non-myeloablative tolerogenic treatment with tyrphostins” (priority 2003, published 2004).

One may read the inhibition as the change of the read-out against control, counted positive when it falls.

Assay [1] relates to donor A anti-donor B-primed human PBMC vs donor B PBMC. The assay is described as follows: Secondary MLR of alloantigen-primed PBMC against priming donor B. The format is cell-based. As to conditions: then removed, priming without tyrphostin = 100%. How it is done: (§1) PBMC from donor A (10×10^6) were stimulated with equal number of irradiated (6000 cGy) donor B PBMC, with and without tyrphostins, in a total volume of 20 ml culture medium supplemented with 10% heat inactivated human AB^+ serum (mixed lymphocyte culture, MLC). Cultures were placed vertically in 25 cm tissue culture flasks in a 5% CO2, humidified incubator at 37° C. After 10 days, cells were washed twice to remove the tyrphostin, and tested for their ability to respond in the MLR and the primary mitogenic response assay described hereinabove.
(§2) The alloreactivity of donor A anti-donor B-primed cells (5×10^4) was tested in a 6-day one-way primary MLR assay against third party unrelated donor C PBMC (10^5), or against donor A cells (background control). Cultures were placed in round-bottom microwell plates. On day 5, cultures were pulsed with 2 μCi [^3H] TdR/well for 16-18 hours and then harvested. […] After 48 hours at 37° C. in a 5% CO2 humidified incubator, cultures were pulsed with 2 μCi [^3H] TdR for another 16-18 hours and then harvested.
(§3) Harvesting and radioactivity determination: Harvesting was carried out by a multiple-sample cell harvester and radioactivity, expressed in counts per minutes (cpm), was determined in a liquid scintillation β-counter.
(§4) […] After 10 days the tyrphostin was removed and the primed cells were tested for their ability to respond in a secondary MLR assay against the priming (donor B) alloantigens, in a primary MLR assay against third party unrelated alloantigens (donor C), and to non-specific stimulation in a mitogenic assay. […] Percentage of response was calculated according to the formula described above.

Assay [2] has as its system donor A anti-donor B-primed human PBMC stimulated with PHA. The assay is described as follows: Mitogenic response (PHA) of alloantigen-primed PBMC. As to conditions: then removed, priming without tyrphostin = 100%. The format is cell-based. On the procedure: as §1
Cultures were incubated for 48 hours in a total volume of 0.2 ml culture medium supplemented with 10% heat-inactivated human AB^+ serum at 37° C. in a 5% CO2 humidified incubator, pulsed for 16-18 hours with 1 μCi [^3H]TdR/well, and then harvested.
as §3, §4

Assay [3] concerns donor A anti-donor B-primed human PBMC vs third party unrelated donor C PBMC. The assay is described as follows: Primary MLR of alloantigen-primed PBMC against third party unrelated donor C. The conditions noted are these: then removed, priming without tyrphostin = 100%. The format is cell-based. How it is done: as §1, §2, §3, §4
The test system of assay [4] is Human PBMC incubated with MHC-mismatched PBMC. The assay is described as follows: One-way mixed lymphocyte reaction (primary MLR), [3H]TdR uptake. The format is cell-based. As to conditions: for % response (alloreactive relative response, cpm with/without tyrphostin x100): FIG. 2, response without tyrphostin = 100%; for IC50: Table 5, some values marked (mean), read-out: IC 50% (inhibition of Primary MLR); for cpm: no tyrphostin 10,734 cpm. How it is done:
Cell sources: Human peripheral blood mononuclear cells (PBMC) were obtained from healthy human donors after separation on Ficoll-Paque density gradient essentially as described in Boyum, A. Scand. J Lab. Invest. […] Reagents:
One-way mixed lymphocyte reaction (MLR assay): Responding cells derived from donor A (5×10^4) were cultured in round-bottom microwell plates with an equal number (5×10^4) of irradiated (6000 cGy) donor B PBMC with and without tyrphostins. […] During the last 18 hours of incubation, cultures were pulsed with 2 μCi of [^3H] TdR.
as §3
Human PBMC were incubated either with autologous or with MHC-mismatched PBMC in a one-way MLR assay, with and without various concentrations of tyrphostins, as is described hereinabove.
In this case, the alloreactive response without the tyrphostins was considered as 100% response. Percentage of response was calculated according to the following formula: b/a×100; where a=cpm in cultures without tyrphostin, b=cpm in cultures with tyrphostin.

Assay [5] deals with Mice with donor skin graft. The assay is described as follows: Skin grafting after tolerogenic treatment (TLI, donor bone marrow cells, tyrphostin, cyclophosphamide). The format is in vivo. Also on record: Survivors after 50 days / Survivors after 50 days (%) / Survivors after 100 days / Survivors after 100 days (%): dose or concentration left out as unconfirmed.
The subject of assay [6] is Human PBMC stimulated with phytohemagglutinin (PHA). The assay is described as follows: Primary mitogenic response assay (PHA), [3H]TdR uptake. As to conditions: Table 6, tyrphostin 20 μM; for inhibition at 20 µM: Homo sapiens, PBMC, 96 h, mitogenic response; for cpm ± SD: PHA without tyrphostin 14,959±644, medium 155±37. The format is cell-based. On the procedure: Mitogens: Phytohemagglutinin (PHA) and concanavalin A (Con-A) were dissolved in saline and diluted to their final concentration in culture medium. Anti-CD3 (OK3 stock solution 1 μg/ml) was diluted to 0.2 μg/ml final concentration in culture medium.
Responding PBMC cells (10^5) derived from donor A were cultured in flat-bottom microwell plates with and without tyrphostins, and with phytohemagglutinin (PHA) 1 μg/ml, or concanavalin A 18 μg/ml. […] During the last 18 hours of incubation, cultures were pulsed with 1 μCi of [^3H] TdR.
as §3

Setting [7] is: primed 10 days with tyrphostin 25 μM.
The mark [8] stands for this setting: primed 10 days with tyrphostin 50 μM.
The mark [9] stands for this setting: Homo sapiens, PBMC, 144 h, Table 2, primary MLR, tyrphostin 50 μM.
The mark [10] stands for this setting: Table 2, primary MLR, tyrphostin 50 μM.
The mark [11] stands for this setting: primed 10 days with tyrphostin 10 μM.
The mark [12] stands for this setting: primed 10 days with tyrphostin 20 μM.
The mark [13] stands for this setting: primed 10 days with tyrphostin 30 μM.

For the compound `N#CC(=Cc1ccc(O)c(O)c1)C(=O)NCc1ccccc1` [Tyr 1, N-benzyl-2-cyano-3-(3,4-dihydroxyphenyl)-acrylamide], the “% Response to primary stimulator” value in assay [1] (setting [7]) was found to be 22 ± 14%; in assay [1] (setting [8]), 19 ± 10%. Also, the entries for the “% Response to PHA” value in assay [2] (setting [7]) and in assay [2] (setting [8]) were 290 ± 111^ % and 176 ± 50%, respectively. The “% Response to unrelated stimulator” value is given as 99 ± 29^ % in assay [3] (setting [7]) and 175 ± 77% in assay [3] (setting [8]). In addition, the “% response (alloreactive relative response, cpm with/without tyrphostin x100)” value was 40% in assay [4] (primary MLR, tyrphostin 10 μM) and 4% in assay [4] (primary MLR, tyrphostin 50 μM). Further, in assay [4] (Homo sapiens, PBMC, 144 h, Table 2, primary MLR, tyrphostin 25 μM), the inhibition at 25 µM amounted to 77%. This compound registered an inhibition at 50 µM in assay [4] (setting [9]) of 89%. Also, the IC50 in assay [4] (Homo sapiens, PBMC) was found to be 45 µM. Moreover, the cpm is 2,420 cpm in assay [4] (Table 2, primary MLR, tyrphostin 25 μM) and 1,132 cpm in assay [4] (setting [10]). The “Survivors after 50 days (%)” value in assay [5] (mice, s.c.) was “(20%)”. Besides, the “Survivors after 100 days (%)” value in assay [5] (mice, s.c.) was “(20%)”. Besides, the “Survivors after 50 days” value in assay [5] (mice, s.c., survivors/total) is 1/5. In addition, the “Survivors after 100 days” value in assay [5] (mice, s.c., survivors/total) was 1/5. Testing at 20 µM in assay [6] gave an inhibition of 60%. For the same compound, the “cpm ± SD” value in assay [6] is reported as 6,023 ± 876 cpm.
Consider `N#CC(=Cc1cc(O)c(O)c(CSCCc2ccccc2)c1)C(=O)NCCCCc1ccccc1` [Tyr 6, 2-cyano-3-(3,4-dihydroxy-5-phenethylsulfanylmethyl-phenyl)-N-(4-phenylbutyl)-acrylamide], for which the “% Response to primary stimulator” value stood at 32% in assay [1] (setting [11]), 32 ± 0% in assay [1] (setting [12]) and 46% in assay [1] (setting [13]). Moreover, the “% Response to PHA” value is on record as 152% in assay [2] (setting [11]), 62 ± 42^ % in assay [2] (setting [12]) and 20% in assay [2] (setting [13]). Besides, the “% Response to unrelated stimulator” value in assay [3] (setting [11]) is 250%; in assay [3] (setting [12]), 220 ± 93%; in assay [3] (setting [13]), 185%. Besides, the inhibition at 10 µM in assay [4] (Homo sapiens, PBMC, 144 h, Table 2, primary MLR, tyrphostin 10 μM) was found to be 59%. For the same compound, the inhibition at 50 µM in assay [4] (setting [9]) amounted to 99%. For the same compound, the IC50 in assay [4] (Homo sapiens, PBMC) turned out to be 23 µM. Moreover, the cpm is listed as 4,431 cpm in assay [4] (Table 2, primary MLR, tyrphostin 10 μM) and 168 cpm in assay [4] (setting [10]). Besides, in assay [6], the inhibition at 20 µM turned out to be 70%. The “cpm ± SD” value in assay [6] is 4,662 ± 104 cpm.
As for `O=P1(N(CCCl)CCCl)NCCCO1` (stereo not drawn) [cyclophosphamide, reference compound], the “effectiveness of sub-optimal dose by itself” value in assay [5] (mouse, in vivo, 100 mg/kg) was “ineffective”.
